Data as given in PubChem BioAssay AID200 (DTP/NCI, 2004).
“And” between values parts separate entries of the source, which are not always exact repeats. Identical values can stand only once. Toxic doses and inconclusive results are not listed.

System: B6C3F1 mice, B16 melanoma ip, median survival T/C
Test: NCI In Vivo Anticancer Drug Screen. Data for tumor model B16 Melanoma (intraperitoneal) in B6C3F1 mice
Details: endpoint: median survival time, schedule: Q01DX009 (ip), higher = longer survival
Method in brief: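 Transplantable tumor in mice; treated vs vehicle control groups; survival or tumor size measured; value = T/C ratio.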

[1] = dose: 100.0 mg/kg/injection, vehicle: saline
[2] = dose: 200.0 mg/kg/injection, vehicle: saline
[3] = dose: 400.0 mg/kg/injection, vehicle: saline
[4] = dose: 3.0 mg/kg/injection, vehicle: saline with Tween-80
[5] = dose: 1.56 mg/kg/injection, vehicle: saline with Tween-80

## C/C(=N\N=C(/[Se])N1CC2CCC(CC2)C1)c1ccccn1
dose: 0.75 mg/kg/injection, vehicle: Klucel (hydroxypropylcellulose) (HPC)
  T/C: 112 % of control and 92 % of control and 108 % of control
dose: 1.5 mg/kg/injection, vehicle: Klucel (hydroxypropylcellulose) (HPC)
  T/C: 111 % of control and 99 % of control
dose: 3.0 mg/kg/injection, vehicle: Klucel (hydroxypropylcellulose) (HPC)
  T/C: 115 % of control and 100 % of control
dose: 6.0 mg/kg/injection, vehicle: Klucel (hydroxypropylcellulose) (HPC)
  T/C: 120 % of control and 93 % of control and 100 % of control

## O=C1N[C@@H]2C(=C[C@H](O)[C@@H](O)[C@H]2O)c2cc3c(c(O)c21)OCO3
dose: 0.62 mg/kg/injection, vehicle: saline with Tween-80
  T/C: 115 % of control
dose: 1.25 mg/kg/injection, vehicle: saline with Tween-80
  T/C: 111 % of control
dose: 2.5 mg/kg/injection, vehicle: saline with Tween-80
  T/C: 109 % of control
dose: 5.0 mg/kg/injection, vehicle: saline with Tween-80
  T/C: 123 % of control

## O=C1C=CN(C2OC(CO)C(O)C2O)C(=O)C1 (configuration not stated)
dose: 25.0 mg/kg/injection, vehicle: saline
  T/C: 97 % of control
dose: 50.0 mg/kg/injection, vehicle: saline
  T/C: 108 % of control
[1]
  T/C: 102 % of control
[2]
  T/C: 105 % of control
[3]
  T/C: 115 % of control

## Cc1cc(=NO)cc(C)n1O
dose: 25.0 mg/kg/injection, vehicle: distilled water + alcohol
  T/C: 109 % of control and 94 % of control
dose: 50.0 mg/kg/injection, vehicle: distilled water + alcohol
  T/C: 98 % of control and 105 % of control
dose: 100.0 mg/kg/injection, vehicle: distilled water + alcohol
  T/C: 87 % of control and 92 % of control
dose: 200.0 mg/kg/injection, vehicle: distilled water + alcohol
  T/C: 92 % of control
dose: 400.0 mg/kg/injection, vehicle: distilled water + alcohol
  T/C: 86 % of control and 89 % of control

## NC(CCCCNC=O)C(=O)O (configuration not stated)
[1]
  T/C: 110 % of control
[2]
  T/C: 121 % of control
[3]
  T/C: 116 % of control

## CC12CCC3C(CCC4CC(OC(=O)Cc5ccc(N(CCCl)CCCl)cc5)CCC43C)C1CCC(=O)N2 (configuration not stated)
dose: 1.5 mg/kg/injection, vehicle: saline with Tween-80
  T/C: 113 % of control
[4]
  T/C: 106 % of control
dose: 12.0 mg/kg/injection, vehicle: saline with Tween-80
  T/C: 167 % of control

## O=C(Oc1cc(Cl)ccc1Cl)c1ccccc1
dose: 50.0 mg/kg/injection, vehicle: saline with Tween-80
  T/C: 96 % of control
dose: 100.0 mg/kg/injection, vehicle: saline with Tween-80
  T/C: 97 % of control
dose: 200.0 mg/kg/injection, vehicle: saline with Tween-80
  T/C: 91 % of control
dose: 400.0 mg/kg/injection, vehicle: saline with Tween-80
  T/C: 87 % of control

## CC1(C)CC(=O)C(CSC(=O)c2ccccc2)C(=O)C1
dose: 1.56 mg/kg/injection, vehicle: Klucel (hydroxypropylcellulose) (HPC)
  T/C: 94 % of control
dose: 3.12 mg/kg/injection, vehicle: Klucel (hydroxypropylcellulose) (HPC)
  T/C: 97 % of control and 99 % of control
dose: 6.25 mg/kg/injection, vehicle: Klucel (hydroxypropylcellulose) (HPC)
  T/C: 98 % of control
dose: 12.5 mg/kg/injection, vehicle: Klucel (hydroxypropylcellulose) (HPC)
  T/C: 93 % of control

## Cc1cc(O)c2c(c1O)C(=O)C13C(=C2O)C(=O)C2C(O)C1C1C(O)C3C(=O)C3=C(O)c4c(O)cc(C)c(O)c4C(=O)C321 (configuration not stated)
dose: 0.19 mg/kg/injection, vehicle: saline with Tween-80
  T/C: 109 % of control
dose: 0.2 mg/kg/injection, vehicle: saline with Tween-80
  T/C: 124 % of control
dose: 0.39 mg/kg/injection, vehicle: saline with Tween-80
  T/C: 114 % of control and 106 % of control
dose: 0.78 mg/kg/injection, vehicle: saline with Tween-80
  T/C: 117 % of control
[5]
  T/C: 117 % of control

## CCC1=C2C(=O)c3ccccc3C2=C(C)S(=O)(=O)O1
[5]
  T/C: 98 % of control
dose: 3.12 mg/kg/injection, vehicle: saline with Tween-80
  T/C: 98 % of control
dose: 6.25 mg/kg/injection, vehicle: saline with Tween-80
  T/C: 91 % of control and 93 % of control

## Cc1cnc(/C=N\NC(N)=S)c2cccc(N)c12
[4]
  T/C: 108 % of control
dose: 6.0 mg/kg/injection, vehicle: saline with Tween-80
  T/C: 116 % of control
